Test results from paper PMC5418449, “Characterisation of CCT271850, a selective, oral and potent MPS1 inhibitor, used to directly measure in vivo MPS1 inhibition vs therapeutic efficacy” (British Journal of Cancer, 2017).
Where two headings read alike, the source gives them in different places.

Tests used:
005A = tested on: 005A; parameters: MTT antiproliferation assay, absorbance at 570 nm, human cancer cell line panel; conditions: 3-day MTT; inhibitor; read-out: Table S1. IC50 of CCT271850 determined by MTT and clonogenic assays (CA). / All cell lines were tested at least 2 times. / 3-day MTT
Description: (§1) Cell lines were obtained from the American Type Culture Collection and grown in their recommended culture medium, supplemented with 10% FBS at 37 °C in 5% CO2. In-house authentication of cell lines by SNP profiling was carried out and cultured cells were passaged for less than 6 months before replacement from early-passage frozen stocks. Cells were regularly screened for Mycoplasma, using a PCR-based assay (VenorGem; Minerva Biolabs, Berlin, Germany). Transfections were carried out at ∼80% confluency with the plasmids indicated, using Lipofectamine LTX (15338030, Life Technologies, Carlsbad, CA, USA) according to the manufacturer's instructions. Cell proliferation assays were carried out by colorimetric MTT method (Sigma, St Louis, MO, USA) as described elsewhere ([Mosmann, 1983]). Briefly, cells were plated in 96-well plates at 2000–5000 cells per well (depending on the cell line) followed by treatment with two-fold dilutions of 0–25 μM drug for 72 h. Absorbance was measured at 570 nm with the Wallac VICTOR2 1420 Multilabel Counter (PerkinElmer, Waltham, MA, USA). To evaluate CCT271850 antiproliferation effects in a large panel of human cancer cell lines, 91 cell lines were treated for 72 h and 14 days at different compound concentrations in growth inhibition assays. The growth inhibition values as measured by IC50 are summarised in Table 2 and Supplementary Table S1. […] Cell lines from colon and head and neck cancers were among the most sensitive.

011B = tested on: 011B; parameters: MTT antiproliferation assay, absorbance at 570 nm, human cancer cell line panel; conditions: 3-day MTT; inhibitor; read-out: Table S1. IC50 of CCT271850 determined by MTT and clonogenic assays (CA). / All cell lines were tested at least 2 times. / 3-day MTT
Description: as §1

015B = tested on: 015B; parameters: MTT antiproliferation assay, absorbance at 570 nm, human cancer cell line panel; conditions: 3-day MTT; inhibitor; read-out: Table S1. IC50 of CCT271850 determined by MTT and clonogenic assays (CA). / All cell lines were tested at least 2 times. / 3-day MTT
Description: as §1

A2780 = tested on: A2780; parameters: MTT antiproliferation assay, absorbance at 570 nm, human cancer cell line panel; conditions: 3-day MTT; inhibitor; read-out: Table S1. IC50 of CCT271850 determined by MTT and clonogenic assays (CA). / All cell lines were tested at least 2 times. / 3-day MTT
Description: as §1

AspC-1 = tested on: AspC-1; parameters: MTT antiproliferation assay, absorbance at 570 nm, human cancer cell line panel; conditions: 3-day MTT; inhibitor; read-out: Table S1. IC50 of CCT271850 determined by MTT and clonogenic assays (CA). / All cell lines were tested at least 2 times. / 3-day MTT
Description: as §1

CAL27 = tested on: CAL27; parameters: MTT antiproliferation assay, absorbance at 570 nm, human cancer cell line panel; conditions: 3-day MTT; inhibitor; read-out: Table S1. IC50 of CCT271850 determined by MTT and clonogenic assays (CA). / All cell lines were tested at least 2 times. / 3-day MTT
Description: as §1

Capan-1 = tested on: Capan-1; parameters: MTT antiproliferation assay, absorbance at 570 nm, human cancer cell line panel; conditions: 3-day MTT; inhibitor; read-out: Table S1. IC50 of CCT271850 determined by MTT and clonogenic assays (CA). / All cell lines were tested at least 2 times. / 3-day MTT
Description: as §1

Capan-2 = tested on: Capan-2; parameters: MTT antiproliferation assay, absorbance at 570 nm, human cancer cell line panel; conditions: 3-day MTT; inhibitor; read-out: Table S1. IC50 of CCT271850 determined by MTT and clonogenic assays (CA). / All cell lines were tested at least 2 times. / 3-day MTT
Description: as §1

EF027 = tested on: EF027; parameters: MTT antiproliferation assay, absorbance at 570 nm, human cancer cell line panel; conditions: 3-day MTT; inhibitor; read-out: Table S1. IC50 of CCT271850 determined by MTT and clonogenic assays (CA). / All cell lines were tested at least 2 times. / 3-day MTT
Description: as §1

HN3 = tested on: HN3; parameters: MTT antiproliferation assay, absorbance at 570 nm, human cancer cell line panel; conditions: 3-day MTT; inhibitor; read-out: Table S1. IC50 of CCT271850 determined by MTT and clonogenic assays (CA). / All cell lines were tested at least 2 times. / 3-day MTT
Description: as §1

HN6 [1] = tested on: HN6; parameters: MTT antiproliferation assay, absorbance at 570 nm, human cancer cell line panel; conditions: 3-day MTT; inhibitor; read-out: Table S1. IC50 of CCT271850 determined by MTT and clonogenic assays (CA). / All cell lines were tested at least 2 times. / 3-day MTT
Description: as §1

IGROV1 = tested on: IGROV1; parameters: MTT antiproliferation assay, absorbance at 570 nm, human cancer cell line panel; conditions: 3-day MTT; inhibitor; read-out: Table S1. IC50 of CCT271850 determined by MTT and clonogenic assays (CA). / All cell lines were tested at least 2 times. / 3-day MTT
Description: as §1

KGN = tested on: KGN; parameters: MTT antiproliferation assay, absorbance at 570 nm, human cancer cell line panel; conditions: 3-day MTT; inhibitor; read-out: Table S1. IC50 of CCT271850 determined by MTT and clonogenic assays (CA). / All cell lines were tested at least 2 times. / 3-day MTT
Description: as §1

Miapaca-2 = tested on: Miapaca-2; parameters: MTT antiproliferation assay, absorbance at 570 nm, human cancer cell line panel; conditions: 3-day MTT; inhibitor; read-out: Table S1. IC50 of CCT271850 determined by MTT and clonogenic assays (CA). / All cell lines were tested at least 2 times. / 3-day MTT
Description: as §1

OAW42 = tested on: OAW42; parameters: MTT antiproliferation assay, absorbance at 570 nm, human cancer cell line panel; conditions: 3-day MTT; inhibitor; read-out: Table S1. IC50 of CCT271850 determined by MTT and clonogenic assays (CA). / All cell lines were tested at least 2 times. / 3-day MTT
Description: as §1

OVCAR4 = tested on: OVCAR4; parameters: MTT antiproliferation assay, absorbance at 570 nm, human cancer cell line panel; conditions: 3-day MTT; inhibitor; read-out: Table S1. IC50 of CCT271850 determined by MTT and clonogenic assays (CA). / All cell lines were tested at least 2 times. / 3-day MTT
Description: as §1

PA-1 = tested on: PA-1; parameters: MTT antiproliferation assay, absorbance at 570 nm, human cancer cell line panel; conditions: 3-day MTT; inhibitor; read-out: Table S1. IC50 of CCT271850 determined by MTT and clonogenic assays (CA). / All cell lines were tested at least 2 times. / 3-day MTT
Description: as §1

PATU-8988S = tested on: PATU-8988S; parameters: MTT antiproliferation assay, absorbance at 570 nm, human cancer cell line panel; conditions: 3-day MTT; inhibitor; read-out: Table S1. IC50 of CCT271850 determined by MTT and clonogenic assays (CA). / All cell lines were tested at least 2 times. / 3-day MTT
Description: as §1

PJ34 = tested on: PJ34; parameters: MTT antiproliferation assay, absorbance at 570 nm, human cancer cell line panel; conditions: 3-day MTT; inhibitor; read-out: Table S1. IC50 of CCT271850 determined by MTT and clonogenic assays (CA). / All cell lines were tested at least 2 times. / 3-day MTT
Description: as §1

PT45 = tested on: PT45; parameters: MTT antiproliferation assay, absorbance at 570 nm, human cancer cell line panel; conditions: 3-day MTT; inhibitor; read-out: Table S1. IC50 of CCT271850 determined by MTT and clonogenic assays (CA). / All cell lines were tested at least 2 times. / 3-day MTT
Description: as §1

RMG1 = tested on: RMG1; parameters: MTT antiproliferation assay, absorbance at 570 nm, human cancer cell line panel; conditions: 3-day MTT; inhibitor; read-out: Table S1. IC50 of CCT271850 determined by MTT and clonogenic assays (CA). / All cell lines were tested at least 2 times. / 3-day MTT
Description: as §1

TOV21G = tested on: TOV21G; parameters: MTT antiproliferation assay, absorbance at 570 nm, human cancer cell line panel; conditions: 3-day MTT; inhibitor; read-out: Table S1. IC50 of CCT271850 determined by MTT and clonogenic assays (CA). / All cell lines were tested at least 2 times. / 3-day MTT
Description: as §1

TYK-Nu = tested on: TYK-Nu; parameters: MTT antiproliferation assay, absorbance at 570 nm, human cancer cell line panel; conditions: 3-day MTT; inhibitor; read-out: Table S1. IC50 of CCT271850 determined by MTT and clonogenic assays (CA). / All cell lines were tested at least 2 times. / 3-day MTT
Description: as §1

HN6 [2] = tested on: HN6; parameters: clonogenic colony formation assay, growth inhibition IC50; conditions: 14-day clonogenic; read-out: Table S1. IC50 of CCT271850 determined by MTT and clonogenic assays (CA). / All cell lines were tested at least 2 times. / 14-day CA
Description: To evaluate CCT271850 antiproliferation effects in a large panel of human cancer cell lines, 91 cell lines were treated for 72 h and 14 days at different compound concentrations in growth inhibition assays. The growth inhibition values as measured by IC50 are summarised in Table 2 and Supplementary Table S1. […] Cell lines from colon and head and neck cancers were among the most sensitive.

Compound `COc1cc(-c2cnn(C)c2)ccc1Nc1ncc2ccnc(N[C@@H](C)C(C)(C)C)c2n1` [34h, CCT271850] has an IC50 (005A) of 940 nM, an IC50 (011B) of 2220 nM and an IC50 (015B) of 350 nM. The IC50 (A2780) was 137 nM, the IC50 (AspC-1) was 2400 nM and the IC50 (CAL27) was 227 nM. For the same compound, the IC50 (Capan-1) was 2050 nM, the IC50 (Capan-2) was 1550 nM and the IC50 (EF027) was 787 nM. The IC50 (HN3) was 845 nM, the IC50 (HN6 [1]) was 330 nM and the IC50 (IGROV1) was 3590 nM. The IC50 (KGN) was 3120 nM, the IC50 (Miapaca-2) was 245 nM and the IC50 (OAW42) was 880 nM. For the same compound, the IC50 (OVCAR4) was 4950 nM, the IC50 (PA-1) was 2250 nM and the IC50 (PATU-8988S) was 2020 nM. It also gave an IC50 (PJ34) of 1120 nM, an IC50 (PT45) of 960 nM and an IC50 (RMG1) of 111 nM. For the same compound, the IC50 (TOV21G) was 753 nM, the IC50 (TYK-Nu) was 990 nM and the IC50 (HN6 [2]) was 15000 nM.
